According to patent publication US20090074850A1, “USE OF A TOPICAL COMPOSITION CONTAINING EPIDERMAL GROWTH FACTOR (EGF) FOR DIABETIC FOOT AMPUTATION PREVENTION” (priority 2005, published 2009):
Marks after values point to notes of the source that are not given here.

Assays:
[1] = tested on: diabetic foot ulcers, grade IV and V lesions with a severe ischemic component; settings: EGF infiltrated in and around lesions with hypodermic needles; cited from earlier work
[2] = tested on: controlled acute ulcers in male Wistar rats; assay: Experimental model of controlled acute lesions; format: in vivo
Method: The following experiment was performed with the aim of evaluating the cicatrisation effect of the new pharmaceutical formulation for topical use, which is based on EGF-loaded (deformable or traditional) liposomes, in acute lesions of satisfactory prognosis.
(§1) Experimental Biomodel Male Wistar rats with a body weight of 225-250 grams. Animal were maintained in controlled areas of the animal facility at CIGB under a constant illumination schedule of 12×12 hours, air change cycles, and free access to the diet. The rats were individually housed into T3 boxes with replacement of the bedding every 48 hours after its sterilization. Induction of ulcers: Animals were anesthetized by intraperitoneal injection of ketamine/xylazine. The back of rats comprising the area from the retroscapular space up to the sacrum was mechanically and chemically depilated. This region was aseptisized with a solution of povidone-iodine and isopropyl alcohol. The area over the skin selected for the induction of ulcers was marked with Chinese ink in order to induce circular, total width lesions with the aid of 9 mm-diameter biotomes (AcuDrem, Fl, USA). […] Lesions were washed with a sterile saline solution and their inner border was delineated with permanent ink for later calculation of wound area at time zero. The lesions of all animals were hygienized daily with 70% ethanol and sterile saline before the application of any treatment.
(§2) The ulcers created in the animals were randomly assigned to the following experimental treatment groups by using an input order/group crossmatching table:
(§3) Group I—no treatment. Group II—placebo (formulation of empty deformable liposomes—without EGF) applied topically.
(§4) Group III—infiltration of an EGF solution containing 75 micrograms per milliliter by using hypodermic needles. Infiltrations were performed on the border and the bottom of wounds
Group IV—treatment with the formulation of traditional liposomes containing 25 micrograms of EGF per gram of substance applied topically Group V—treatment with the formulation of traditional liposomes containing 75 micrograms of EGF per gram of substance applied topically Group V—treatment with the formulation of deformable liposomes containing 25 micrograms of EGF per gram of substance applied topically Group VII—treatment with the formulation of deformable liposomes containing 75 micrograms of EGF per gram of substance applied topically
(§5) Each group consisted of 10 rats; therefore 60 wounds per group were studied. Treatments were performed daily, after sedation of animals with diazepam administrated by the intra-peritoneal route.
(§6) The lesions were traced on transparent acetate sheets for calculating the kinetics of the wounds contraction over the following times: Time 0—represents 100% of opened lesion area and 0% wound contraction, Time 1—72 hours after the induction of lesions, Time 2—five days after the induction of lesions, Time 3—seven days after the induction of lesions, Time 4—nine days after the induction of lesions. The ninth day was set as the end of this study, on which the animals were sacrificed, according to previous experiences on the kinetics of the spontaneous cicatrisation of these lesions. The images with traced lesions borders were digitized. The area of lesions and the percent of contraction were calculated by using the image analysis software DIGIPAT. Statistical analyses of each parameter were performed with the SPSS package by using the non-parametric Mann Whitney U test, a signification level of p<0.05 was assumed.
Animals were sacrificed by intra-peritoneal injection with an overdose of sodium pentobarbital (250 mg/kg). Lesion were dried up from the panniculus carnosus and fixed in 10% neutral formalin for later inclusion in paraffin. The hematoxylin/eosin, van Giesson's and Masson's trichromic stains were used. For each group, the number of animals with 100% epithelization of the lesion, and with a stratified and differentiated epidermis was determined. […]

[3] = tested on: chronic ulcers in male Wistar rats treated with methylglyoxal; assay: Experimental model of chronic cutaneous ulcers (methylglyoxal-treated rats); format: in vivo
Method: The following experiment was aimed at evaluating the cicatrisation effect of the new pharmaceutical formulation of topical use that is based on traditional or deformable liposomes containing EGF in chronic lesions of poor prognosis, which simulate lesions in diabetic patients.
Experimental Biomodel Male Wistar rats with a body weight of 225-250 grams. Animal were maintained in controlled areas of the animal facility at CIGB under a constant illumination schedule of 12×12 hours, air change cycles, and free access to the diet. The rats were individually housed into T3 boxes with replacement of the bedding every 48 hours after its sterilization. The animals had previously been treated for two months with a 0.01% methylglyoxal solution to create a glycosylation environment similar to that occurring in a diabetic patient of long term evolution. Among other organic damages, this leads to a slow down of the granulation and remodelation of wounds (Berlanga J., Cibrian D., et al. (2005) Methylglyoxal administration induces diabetes-like microvascular changes and perturbs the healing process of cutaneous wounds. Clin Sci (Lond). 109(1):83-95).
as §1, with “Induction” for “Experimental Biomodel Male Wistar rats with a body weight of 225-250 grams. Animal were maintained in controlled areas of the animal facility at CIGB under a constant illumination schedule of 12×12 hours, air change cycles, and free access to the diet. The rats were individually housed into T3 boxes with replacement of the bedding every 48 hours after its sterilization. Induction”
as §2, §3, §4
Group IV—treatment with the formulation of traditional liposomes containing 25 micrograms of EGF per gram of substance applied topically Group V—treatment with the formulation of traditional liposomes containing 75 micrograms of EGF per gram of substance applied topically Group VI—treatment with the formulation of deformable liposomes containing 25 micrograms of EGF per gram of substance applied topically Group VII—treatment with the formulation of deformable liposomes containing 75 micrograms of EGF per gram of substance applied topically
as §5
as §6, with “[…],” for “Time 4—nine days after the induction of lesions. The ninth day was set as the end of this study,”, “assumed. […]” for “assumed.”

[4] = Concentration of EGF in the viable tissue deep below the cutaneous lesions (ELISA); format: in vivo, Wistar rats; settings: tissue 1 cm below lesion
Method: To determine the concentration of EGF, histological cuts of the tissue deep below (1 cm) the cutaneous lesions were performed 20 min, 1 h, 4 h, 8 h, 16 h and 24 h after the induction of lesions. The tissue was homogenized into a phosphate-buffered saline solution. The concentration of EGF was determined by an Enzyme Linked Immunosorbent Assay (ELISA).

epidermal growth factor (EGF) [Free EGF, non-encapsulated epidermal growth factor]
efficacy [1]: greater than 50%

Group III: infiltration of an EGF solution containing 75 micrograms per milliliter by using hypodermic needles
No. wounds with 100% epithelization ([2]; 60 wounds per group): 37
No. wounds with a mature epithelium ([2]; 60 wounds per group): 25
Contraction (%) ([2]; Time 1 (72 hours after induction of lesions)): 12.3 ± 2.1*^a %
Contraction (%) ([2]; Time 2 (five days)): 23 ± 2.7*^a %
Contraction (%) ([2]; Time 3 (seven days)): 67.5 ± 3.1*^a %
Contraction (%) ([2]; Time 4 (nine days)): 76.5 ± 2.2*^a %
% area covered by mature granulation tissue ([2]; Time 4, 60 wounds per group): 66.7 ± 3.22%
No. wounds with 100% epithelization ([3]; 60 wounds per group): 16
No. wounds with a mature epithelium ([3]; 60 wounds per group): 11
Contraction (%) ([3]; Time 1): 6.55 ± 1.14%
Contraction (%) ([3]; Time 2): 10.25 ± 3.1 %
Contraction (%) ([3]; Time 3): 25 ± 2.7 %
Contraction (%) ([3]; Time 4): 53.5 ± 3.5 %
% area covered by mature granulation tissue ([3]; Time 4, 60 wounds per group): 41.7 ± 2.25%
Contraction (%) ([3]; Time 6): 61.7 ± 2.14 %
EGF concentration ([4]; 20 min): 27.55 ± 0.14 µg/mL
EGF concentration ([4]; 1 h): 5.47 ± 0.1 µg/mL
EGF concentration ([4]; 4 h): 1.55 ± 0.1 µg/mL
EGF concentration ([4]; 8 h): 0.26 ± 0.04 µg/mL
EGF concentration ([4]; 16 h): 0.07 ± 0.01 µg/mL
EGF concentration ([4]; 24 h): 0.02 ± 0.005 µg/mL
